The record followed here is patent US20070203325A1, “Integrase-dirived HIV-inhibiting agents” (priority 2006, published 2007).

Experiment [1] deals with HIV-1 NL4.3-Nef+/GFP+. The experiment in a line: Infection of MT4 cells by virus from producer cells expressing the IN C-terminal domain, GFP-positive cell count. The experiment is classed as cell-based. The conditions noted are these: viruses produced by 293T cells expressing the protein, 48 h post-infection.
Experiment [2] concerns HIV-1 NL4.3-Nef+/GFP+. Kind of experiment: Infection of HeLa-β-Gal-CD4/CCR5 cells by virus from producer cells expressing the IN C-terminal domain, MAGI assay. The experiment is classed as cell-based. The conditions noted are these: viruses produced by 293T cells expressing the protein, 48 h post-infection.

Take “IN C-terminal domain: T7-tagged HIV-1 integrase C-terminal domain 205-288 (SEQ ID NO:2) expressed in viral producer cells”: the “virus infection of MT4 cells” value in the experiment on HIV-1 NL4.3-Nef+/GFP+ [1] was “significantly impaired”. In addition, in the experiment on HIV-1 NL4.3-Nef+/GFP+ [2], the “virus infection of HeLa-β-Gal-CD4/CCR5 cells” value was “significantly impaired”.
